Literature values in patent US20240361407A1, “SYSTEMS AND METHODS FOR GENERATION OF HYPERPOLARIZED MATERIALS” (priority 2021, published 2024).
In brackets after ≈: the same amount, converted by molar mass.

Conditions: aqueous solution

O=C(O)/C=C/C(=O)O [fumaric acid]
solubility: 60 mM (≈ 6960 µg/mL)
